Assay results: ChEMBL document CHEMBL3108681, “Inhibitors of Tropomyosin-Receptor Kinases (Trk's): Potential Pain Therapy and More” (ACS Med Chem Lett, 2014)

biological target: High affinity nerve growth factor receptor (Homo sapiens, UniProt P04629); experiment: Inhibition of TrkA (unknown origin) using fluorescently labeled peptide substrate after 3 hrs
Sequence (P04629 whole entry): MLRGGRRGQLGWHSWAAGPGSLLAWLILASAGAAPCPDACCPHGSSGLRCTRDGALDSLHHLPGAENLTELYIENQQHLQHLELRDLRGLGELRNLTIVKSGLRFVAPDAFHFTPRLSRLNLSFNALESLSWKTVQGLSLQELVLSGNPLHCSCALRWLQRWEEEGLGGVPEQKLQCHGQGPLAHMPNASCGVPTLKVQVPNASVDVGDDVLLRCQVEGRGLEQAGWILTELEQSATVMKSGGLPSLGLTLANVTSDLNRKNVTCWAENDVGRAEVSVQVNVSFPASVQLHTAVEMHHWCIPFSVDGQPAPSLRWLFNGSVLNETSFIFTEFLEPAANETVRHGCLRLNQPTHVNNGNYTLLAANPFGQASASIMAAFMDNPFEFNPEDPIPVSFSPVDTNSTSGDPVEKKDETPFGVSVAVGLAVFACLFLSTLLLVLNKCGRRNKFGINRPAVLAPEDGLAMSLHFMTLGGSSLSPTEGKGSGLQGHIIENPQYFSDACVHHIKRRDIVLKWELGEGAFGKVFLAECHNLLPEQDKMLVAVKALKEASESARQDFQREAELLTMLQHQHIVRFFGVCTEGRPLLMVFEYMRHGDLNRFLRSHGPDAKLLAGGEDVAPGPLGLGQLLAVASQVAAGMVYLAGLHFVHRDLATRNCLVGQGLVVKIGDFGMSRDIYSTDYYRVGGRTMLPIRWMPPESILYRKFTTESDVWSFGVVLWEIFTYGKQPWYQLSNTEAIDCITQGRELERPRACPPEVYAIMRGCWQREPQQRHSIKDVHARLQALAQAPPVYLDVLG

| SMILES | EC50 [nM] |
| --- | --- |
| CC(C)N(Cc1c[nH]c2ncccc12)C(=O)Nc1ccc(OC(F)(F)F)cc1 | 11.3 |
| CC(C)N(Cc1c[nH]c2ncccc12)C(=O)Nc1ccc(SC(F)(F)F)cc1 | 6.5 |
| CC1(C)CN(c2ccc(OC(F)(F)F)cc2)C(=O)N1Cc1cccc(-c2nccs2)c1 | 1010 |
